Reference: patent publication US11440907B1 (Merck Patent GmbH, priority 2018, dated 2022)

system: XBP1(u)-luciferase splicing reporter in HepG2 hepatoma cells; test: HepG2 XBP1 reporter assay (XBP1(u)-Luc); type: cell-based; conditions: 6 hours after compound addition, Table 4
Description: HepG2 XBP1 Reporter Assay
HepG2 hepatoma cells were transduced with a retrovirus encoding the cDNA for unspliced (u) XBP1, which contains a non-processed intron, fused to the cDNA for firefly luciferase. Upon induction of ER stress, the non-processed intron of XBP1(u) is spliced out by active IRE1alpha endonuclease. The resulting spliced (s) XBP1 is now in frame with luciferase which causes the production of active luciferase protein, resulting in bioluminescence
HepG2 XBP1(u)-Luc cells were plated […] Cultured cells with a stably transfected reporter construct were plated at approximately 30,000 cells per well into 96 well multi-well plates for twenty four hours. The testing compounds were then added to the wells in 3-fold serial dilutions using a twenty seven micromolar top concentration. A series of control wells for each cell type received only compound solvent. Six hours after the addition of compound, reporter activity for luciferase was assayed, by addition of the SteadyGlo luminescence reagent (Promega). The reporter luminescence activity was measured using Pherastar plate reader (BMG Labtech). Readings was normalized to DMSO only treated cells, and normalized activities were then used in the IC50 calculations. The HepG2 XBP1 reporter assay data are summarized in Tables 3-5: A<0.6 μM; 0.6 μM≤B<2.0 μM; 2.0 μM≤C<5.0 μM; D≥5.0 μM.

Q: With `COc1cc(Cl)c([C@H]2COCCCN2c2cc(C)nc(N)n2)cc1O` [C-95] as the molecule, how does the IC50 read?
A: The IC50 was under 0.6 µM.

same assay, conditions: Homo sapiens, 6 hours after compound addition, Table 4

Q: Which IC50 does the source give for `Cc1cc(N2CCCOCC2c2cc(CS(C)(=O)=O)ccc2Cl)nc(N)n1` (stereo in doubt) [C-52, 4-[(R)-3-(2-Chloro-5-methanesulfonylmethyl-phenyl)-[1,4]oxazepan-4-yl]-6-methyl-pyrimidin-2-ylamine] here?
A: The IC50 was 0.6 to 2 µM.

Q: How did the IC50 turn out when `Cc1cc(N2CCCOCC2c2cc(S(N)(=O)=O)c(Cl)cc2Cl)nc(N)n1` (centres unmarked) [C-8] was run?
A: The IC50 was 0.6 to 2 µM.

Q: With `Cc1cc(N2CCCOCC2c2cc(O)c(Cl)cc2Cl)nc(N)n1` (centres unmarked) [C-9] as the molecule, how does the IC50 read?
A: The IC50 was 0.6 to 2 µM.

Q: `Cc1cc(N2CCCOCC2c2cc(C)c(Cl)cc2Cl)nc(N)n1` (centres unmarked) [C-10] was tested. Which IC50 did it give?
A: Its IC50 is 2 to 5 µM.

Q: `CNc1cc(Cl)c(C2COCCCN2c2cc(C)nc(N)n2)cc1C` (centres unmarked) [C-25] was tested. Which IC50 did it give?
A: Its IC50 is under 0.6 µM.

Q: Which IC50 does the source give for `Cc1cc(N2CCCOCC2c2cc3c(cc2Cl)CCC3)nc(N)n1` (centres unmarked) [C-26] here?
A: Its IC50 is 0.6 to 2 µM.

Q: `Cc1cc(Cl)c(C2COCCCN2c2cc(N)nc(N)n2)cc1C` (centres unmarked) [C-27] was tested. Which IC50 did it give?
A: The IC50 was 0.6 to 2 µM.

Q: For `COc1cc(Cl)c(C2COCCCN2c2cc(C)nc(N)n2)cc1F` (centres unmarked) [C-28], which IC50 is on record?
A: Its IC50 is 0.6 to 2 µM.

Q: How did the IC50 turn out when `CCOc1cc(C2COCCCN2c2cc(C)nc(N)n2)c(Cl)cc1OC` (centres unmarked) [C-29] was run?
A: Its IC50 is under 0.6 µM.

Q: With `Cc1cc(N2CCCOCC2c2cc3c(cc2Cl)NCCC3)nc(N)n1` (centres unmarked) [C-43] as the molecule, how does the IC50 read?
A: The IC50 was under 0.6 µM.

Q: With `COC(=O)COc1cc(Cl)c(C2COCCCN2c2cc(C)nc(N)n2)cc1OC` (centres unmarked) [C-44] as the molecule, how does the IC50 read?
A: Its IC50 is 0.6 to 2 µM.

Q: How did the IC50 turn out when `C=CCOc1cc(Cl)c(C2COCCCN2c2cc(C)nc(N)n2)cc1OC` (centres unmarked) [C-45] was run?
A: The IC50 was 0.6 to 2 µM.

Q: For `COc1cc(C2COCCCN2c2cc(C)nc(N)n2)c(Cl)cc1Cl` (centres unmarked) [C-46], which IC50 is on record?
A: The IC50 was 2 to 5 µM.

Q: Which IC50 does the source give for `CCCOc1cc(Cl)c(C2COCCCN2c2cc(C)nc(N)n2)cc1OC` (centres unmarked) [C-47] here?
A: The IC50 was 0.6 to 2 µM.

Q: How did the IC50 turn out when `Cc1cc(N2CCCOCC2c2cc(F)c(-c3ccncc3)cc2Cl)nc(N)n1` (centres unmarked) [C-48] was run?
A: Its IC50 is 0.6 to 2 µM.

Q: For `Cc1cc(N2CCCOC[C@@H]2c2ccc(CS(C)(=O)=O)cc2F)nc(N)n1` [C-50, 4-[(S)-3-(2-Fluoro-4-methanesulfonylmethyl-phenyl)-[1,4]oxazepan-4-yl]-6-methyl-pyrimidin-2-ylamine], which IC50 is on record?
A: The IC50 was under 0.6 µM.

Q: With `Cc1cc(N2CCCOCC2c2ccc(OCC(N)=O)cc2Cl)nc(N)n1` (centres unmarked) [C-53, 2-{4-[4-(2-Amino-6-methyl-pyrimidin-4-yl)-[1,4]oxazepan-3-yl]-3-chloro-phenoxy}-acetamide] as the molecule, how does the IC50 read?
A: The IC50 was under 0.6 µM.

Q: For `Cc1cc(N)nc(N2CCCOCC2c2cc3c(cc2Cl)CCN3C)c1` (centres unmarked) [C-54], which IC50 is on record?
A: Its IC50 is under 0.6 µM.

Q: `Cc1cc(N2CCCOCC2c2cc3c(cc2Cl)OCC(C)(C)CO3)nc(N)n1` (centres unmarked) [C-55] was tested. Which IC50 did it give?
A: Its IC50 is 0.6 to 2 µM.

Q: With `COc1cc(Cl)c(C2COCCCN2c2cc(C)nc(N)n2)cc1OC1CCC1` (centres unmarked) [C-56] as the molecule, how does the IC50 read?
A: Its IC50 is 2 to 5 µM.

Q: `Cc1cc(N2CCCOCC2c2cc(Cl)c(OC(F)F)cc2Cl)nc(N)n1` (centres unmarked) [C-57] was tested. Which IC50 did it give?
A: The IC50 was 0.6 to 2 µM.

Q: For `Cc1cc(N2CCCOC[C@@H]2c2cc3c(cc2Cl)NCC3)nc(N)n1` [C-59], which IC50 is on record?
A: Its IC50 is under 0.6 µM.

Q: Which IC50 does the source give for `Cc1cc(N2CCCOCC2c2ccc(O[C@H](C)CO)cc2Cl)nc(N)n1` (stereo partly drawn) [C-60, (R)-2-{4-[4-(2-Amino-6-methyl-pyrimidin-4-yl)-[1,4]oxazepan-3-yl]-3-chloro-phenoxy}-propan-1-ol] here?
A: Its IC50 is 0.6 to 2 µM.

Q: For `Cc1cc(N2CCCOCC2c2ccc(OC[C@H](O)CO)cc2Cl)nc(N)n1` (stereo partly drawn) [C-61, (R)-3-{4-[4-(2-Amino-6-methyl-pyrimidin-4-yl)-[1,4]oxazepan-3-yl]-3-chloro-phenoxy}-propane-1,2-diol], which IC50 is on record?
A: The IC50 was under 0.6 µM.

Q: Which IC50 does the source give for `Cc1cc(N2CC3(CC3)COCC2c2ccc(CS(C)(=O)=O)cc2Cl)nc(N)n1` (centres unmarked) [C-62, 4-[7-(2-Chloro-4-methanesulfonylmethyl-phenyl)-5-oxa-8-aza-spiro[2.6]non-8-yl]-6-methyl-pyrimidin-2-ylamine] here?
A: Its IC50 is at least 5 µM.

Q: Which IC50 does the source give for `Cc1cc(N2CC(C)COCC2c2ccc(CS(C)(=O)=O)cc2Cl)nc(N)n1` (centres unmarked) [C-63, 4-[3-(2-Chloro-4-methanesulfonylmethyl-phenyl)-6-methyl-[1,4]oxazepan-4-yl]-6-methyl-pyrimidin-2-ylamine] here?
A: Its IC50 is at least 5 µM.

Q: For `Cc1cc(N2CCCOC[C@@H]2c2ccc(OC[C@@H](O)CO)cc2Cl)nc(N)n1` [C-64, (S)-3-{4-[(S)-4-(2-Amino-6-methyl-pyrimidin-4-yl)-[1,4]oxazepan-3-yl]-3-chloro-phenoxy}-propane-1,2-diol], which IC50 is on record?
A: Its IC50 is 2 to 5 µM.

Q: For `Cc1cc(N2CCCOC[C@@H]2c2cc3c(cc2Cl)OCC(=O)N3)nc(N)n1` [C-67], which IC50 is on record?
A: The IC50 was at least 5 µM.

Q: With `Cc1cc(N2CCCOC[C@H]2c2cc3c(cc2Cl)OCC(=O)N3)nc(N)n1` [C-68] as the molecule, how does the IC50 read?
A: Its IC50 is under 0.6 µM.

Q: `Cc1cc(N2CCCOC[C@@H]2c2cc3c(cc2Cl)OCCO3)nc(N)n1` [C-70] was tested. Which IC50 did it give?
A: The IC50 was under 0.6 µM.

Q: How did the IC50 turn out when `Nc1nccc(N2CCCOC[C@H]2c2cc3c(cc2Cl)OCCCO3)n1` [C-71] was run?
A: The IC50 was at least 5 µM.

Q: `Nc1nccc(N2CCCOC[C@@H]2c2cc3c(cc2Cl)OCCCO3)n1` [C-72] was tested. Which IC50 did it give?
A: Its IC50 is under 0.6 µM.

Q: `Cc1cc(N2CCCOCC2c2ccc(CS(C)(=O)=O)cc2OC(F)F)nc(N)n1` (centres unmarked) [C-75] was tested. Which IC50 did it give?
A: Its IC50 is under 0.6 µM.

Q: `COc1cc(C2COCCCN2c2cc(C)nc(N)n2)c(Cl)cc1N` (centres unmarked) [C-76] was tested. Which IC50 did it give?
A: Its IC50 is under 0.6 µM.

Q: Which IC50 does the source give for `Cc1cc(N2CCCOCC2c2cc(N)c(C(F)(F)F)cc2Cl)nc(N)n1` (centres unmarked) [C-77] here?
A: The IC50 was 0.6 to 2 µM.

Q: `COc1cc([C@H]2COCCCN2c2cc(C)nc(N)n2)c(Cl)cc1O` [C-78] was tested. Which IC50 did it give?
A: The IC50 was under 0.6 µM.

Q: With `COc1cc([C@@H]2COCCCN2c2cc(C)nc(N)n2)c(Cl)cc1O` [C-79] as the molecule, how does the IC50 read?
A: The IC50 was at least 5 µM.

Q: Which IC50 does the source give for `COc1cc(Cl)c([C@H]2COCCCN2c2cc(C)nc(N)n2)cc1OC` [C-80] here?
A: The IC50 was under 0.6 µM.

Q: `COc1cc(Cl)c([C@@H]2COCCCN2c2cc(C)nc(N)n2)cc1OC` [C-81] was tested. Which IC50 did it give?
A: The IC50 was at least 5 µM.

Q: With `Cc1cc(N2CCCOCC2c2ccc(CS(C)(=O)=O)nc2Cl)nc(N)n1` (centres unmarked) [C-82] as the molecule, how does the IC50 read?
A: The IC50 was 0.6 to 2 µM.

Q: For `CCOc1cc(Cl)c([C@H]2COCCCN2c2cc(C)nc(N)n2)cc1OC` [C-85], which IC50 is on record?
A: The IC50 was under 0.6 µM.

Q: With `CCOc1cc(Cl)c([C@@H]2COCCCN2c2cc(C)nc(N)n2)cc1OC` [C-86] as the molecule, how does the IC50 read?
A: Its IC50 is at least 5 µM.

Q: How did the IC50 turn out when `Cc1cc(N2CCCOC[C@@H]2c2cc(Cl)c(O)cc2Cl)nc(N)n1` [C-87] was run?
A: Its IC50 is 0.6 to 2 µM.

Q: With `Cc1cc(N2CCCOCC2c2cc3c(cc2Cl)CCCN3)nc(N)n1` (centres unmarked) [C-88] as the molecule, how does the IC50 read?
A: Its IC50 is 2 to 5 µM.

Q: With `CCOC(=O)COc1cc(Cl)c(C2COCCCN2c2cc(C)nc(N)n2)cc1OC` (centres unmarked) [C-89] as the molecule, how does the IC50 read?
A: Its IC50 is 0.6 to 2 µM.

Q: For `Cc1cc(N2CCCOCC2c2cc3c(cc2Cl)OCC2(CC2)CO3)nc(N)n1` (centres unmarked) [C-90], which IC50 is on record?
A: Its IC50 is under 0.6 µM.

Q: `CCCOc1cc(Cl)c(C2COCCCN2c2cc(C)nc(N)n2)cc1OCC` (centres unmarked) [C-91] was tested. Which IC50 did it give?
A: Its IC50 is 0.6 to 2 µM.

Q: Which IC50 does the source give for `Cc1cc(N2CCCOC[C@@H]2c2cc3c(cc2Cl)n(C)c(=O)n3C)nc(N)n1` [C-93] here?
A: The IC50 was under 0.6 µM.

Q: Which IC50 does the source give for `COc1cc(Cl)c([C@@H]2COCCCN2c2cc(C)nc(N)n2)cc1O` [C-94] here?
A: Its IC50 is under 0.6 µM.

Q: `Cc1cc(N2CCCOCC2c2cc3c(cc2Cl)COCO3)nc(N)n1` (centres unmarked) [C-96] was tested. Which IC50 did it give?
A: The IC50 was 0.6 to 2 µM.

Q: For `COc1cc(C2COCCCN2c2cc(C)nc(N)n2)c(Cl)cc1OCC(N)=O` (centres unmarked) [C-97], which IC50 is on record?
A: The IC50 was 0.6 to 2 µM.

Q: With `COc1cc(C2COCCCN2c2cc(C)nc(N)n2)c(Cl)cc1OCC#N` (centres unmarked) [C-98] as the molecule, how does the IC50 read?
A: The IC50 was under 0.6 µM.

Q: For `COc1cc(Cl)c(C2COCCCN2c2cc(C)nc(N)n2)cc1C` (centres unmarked) [C-99], which IC50 is on record?
A: Its IC50 is 0.6 to 2 µM.

Q: `Cc1cc(N2CCCOCC2c2cc(Cl)c(F)cc2Cl)nc(N)n1` (centres unmarked) [C-100] was tested. Which IC50 did it give?
A: The IC50 was 2 to 5 µM.

Q: For `COc1cc(C2COCCCN2c2nc(C)nc(N)n2)c(Cl)cc1N1CCCCC1` (centres unmarked) [C-101], which IC50 is on record?
A: The IC50 was 0.6 to 2 µM.

Q: Which IC50 does the source give for `COc1cc(C2COCCCN2c2ccnc(N)n2)c(Cl)cc1OC1CCCC1` (centres unmarked) [C-102] here?
A: Its IC50 is 0.6 to 2 µM.

Q: For `CCOc1cc(Cl)c([C@H]2COCCCN2c2cc(C)nc(N)n2)cc1OCC` [C-103], which IC50 is on record?
A: Its IC50 is under 0.6 µM.

Q: How did the IC50 turn out when `CCOc1cc(Cl)c([C@@H]2COCCCN2c2cc(C)nc(N)n2)cc1OCC` [C-104] was run?
A: Its IC50 is at least 5 µM.
